Measurements: article PMC6155388, “Chemical Constituents of Smilax china L. Stems and Their Inhibitory Activities against Glycation, Aldose Reductase, α-Glucosidase, and Lipase” (Molecules : A Journal of Synthetic Chemistry and Natural …, 2017)

Tests used:
[1] = molecular target: α-glucosidase from Saccharomyces cerevisiae; test: α-Glucosidase inhibition assay (p-NPG); type: biochemical; conditions: isolated compounds; tested 1–1000 µM; mean ± SD (n = 3)
Procedure: This enzyme inhibition assay was carried out by using a 96-well microplate reader and a spectrophotometer. The reaction volume (60 μL) contained 100 mM phosphate buffer (pH 6.8), 2.5 mM p-nitrophenyl α-D-glucopyranoside (p-NPG), and sample dissolved in 10% DMSO at five different final concentrations (5–100 µg/mL for extracts and fractions or 1–1000 µM for isolated constituents). A chromogenic substance was used for quantification purposes. The mixture solution was added to each well, then, 20 μL of 10 mM phosphate buffer (pH 6.8) containing 0.2 U/mL α-glucosidase was added. The plate was incubated at 37 °C for 15 min, then, 80 μL of 0.2 mol/L sodium carbonate solution was added to stop the reaction. Absorbance was measured at 405 nm immediately after reaction cessation by using a SUNRISE microplate reader (Tecan Austria GmbH, Grodig, Austria). The negative control contained the same reaction mixture with phosphate buffer substituted for the sample solution. […] The inhibition rate of α-glucosidase activity was calculated using the same equation (1) used for inhibition of AGEs formation, but absorbance was measured instead of fluorescence.

[2] = molecular target: T1, rat lens aldose reductase (Rattus norvegicus, UniProt P07943); test: AR assay (rat lens homogenate, decrease in β-NADPH absorption); type: biochemical, Sprague-Dawley rats; conditions: mean ± SD (n = 3); for IC50: isolated compounds, tested 0.1–100 µM
T1 construct: The rat lenses were homogenized and centrifuged at 10,000 rpm (4 °C, 20 min) and the supernatant was used as an enzyme source; from tissue; host or cells: rat lens (Sprague-Dawley)
Procedure: Lenses (one lens per 0.5 mL sodium buffer) were removed from Sprague-Dawley rats (weight 250–280 g) and stored in a deep freezer at −80 °C until use. The rat lenses were homogenized and centrifuged at 10,000 rpm (4 °C, 20 min) and the supernatant was used as an enzyme source [65]. AR activity was spectrophotometrically calculated by measuring the decrease in β-NADPH absorption rate at 340 nm for a 4 min period at 25 °C in a 96-well plate using the same detector device used in the AGEs assay. The assay mixture (300 µL) contained 0.1 M potassium phosphate buffer (pH 7.0), 0.1 M sodium phosphate buffer (pH 6.2), 1.6 mM β-NADPH, and test samples with 0.025 M of DL-glyceraldehyde as substrate. […] IC50 values were determined using the least-squares regression line of log concentration plotted against residual activity. TMG, a typical AR inhibitor, was used as the positive control. A negative control was fulfilled by using DMSO instead of the sample.

[3] = molecular target: T2, porcine pancreatic lipase (Sus scrofa, UniProt P00591); test: Lipase inhibition assay (p-NPB); type: biochemical; conditions: isolated compounds; tested 10–2000 µM; mean ± SD (n = 3)
T2 construct: purchased Sigma-Aldrich Co. Type II
T2 sequence (P00591 1-450): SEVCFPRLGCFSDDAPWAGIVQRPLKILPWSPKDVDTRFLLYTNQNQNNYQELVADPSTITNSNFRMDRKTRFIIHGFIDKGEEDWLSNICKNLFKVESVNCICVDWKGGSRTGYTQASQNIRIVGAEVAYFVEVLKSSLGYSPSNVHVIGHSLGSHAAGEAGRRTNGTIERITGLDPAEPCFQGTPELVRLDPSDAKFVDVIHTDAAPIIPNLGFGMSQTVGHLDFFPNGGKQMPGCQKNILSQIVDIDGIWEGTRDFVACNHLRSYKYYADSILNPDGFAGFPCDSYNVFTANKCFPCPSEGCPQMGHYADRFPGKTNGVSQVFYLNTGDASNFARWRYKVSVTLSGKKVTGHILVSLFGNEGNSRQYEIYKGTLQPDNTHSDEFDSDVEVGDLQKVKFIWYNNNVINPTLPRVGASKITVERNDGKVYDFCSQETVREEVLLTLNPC
Procedure: Lipase inhibition activity was evaluated according to a slightly modified method of de Camargo et al. [66]. The substrate used was p-nitrophenyl butyrate (p-NPB), which is converted to p-nitro-phenol in the presence of lipase, giving a yellow color that can be used to quantify the extent of the reaction. Type II porcine pancreatic lipase was used at a concentration of 5 mg/mL. The substrate (p-NPB) was prepared in DMSO to achieve a concentration of 5 mM. Tested samples, dissolved in 10% DMSO at five different final concentrations (0.05–5.0 mg/mL for extracts and fractions or 10–2000 µM for isolated constituents), were mixed with Tris–HCl buffer (pH 7.4), and enzyme solution, with a total reaction mixture volume of 840 μL. After incubation at 37 °C for 15 min, p-NPB was added, and the solution was further incubated at 37 °C for 25 min. Then, the mixture was cooled for 2 min, and 200 μL was transferred to a 96-well plate. Absorbance was measured using the SUNRISE microplate reader. Blanks, in which enzymes were replaced with Tris–HCl buffer, were prepared for background corrections. […] The inhibition rate of lipase activity was also calculated using Equation (1).

AGEs formation = AGEs formation inhibition assay (BSA with fructose and glucose, fluorescence); type: biochemical; conditions: mean ± SD (n = 3); for IC50: isolated compounds, tested 10–500 µM
Procedure: In accordance with a reported protocol with slight modifications, a reaction mixture of bovine serum albumin (10 mg/mL, Sigma Aldrich) in 50 mM phosphate buffer (pH 7.4) with 0.02% sodium azide was added to 0.4M fructose and glucose. The reaction mixture (270 μL) was added to 30 μL of sequentially diluted compounds or the positive control, AMG. Each sample of extract, hexane, water fractions, EAF, NBF, and compounds 1–10 were dissolved in DMSO for the AGEs assay at five different final concentrations (10–500 µg/mL for extracts and fractions or 10–500 µM for isolated constituents). After 48 h of incubation at 60 °C, 200 μL of the reaction products was taken to 96-well plates and its fluorescence was measured using a spectrofluorometric detector (FlexStation 3, HTRF® Chemistry) at an excitation wavelength of 350 nm and an emission wavelength of 450 nm. DMSO was used as negative control instead of the sample. The IC50 values and 95% confidence intervals were obtained via regression analysis. The percentage of inhibition (%) was calculated by the following equation, where Ac stands for the fluorescence of the control and As stands for the fluorescence of the sample: (1) Inhibition(%)=Ac−As/Ac×100

[4] = ND: no detection within test concentration
[5] = 70% MeOH stem extracts of Smilacaceae plants

Row | Compound | IC50 [1] [µM] | IC50 [2, 4] [µM] | IC50 [3] [µM] | IC50 (AGEs formation) [µM] | Aldose Reductase IC50 [2, 5] [µg/mL] | Aldose Reductase IC50 ([2]; SCS extract and solvent fractions, tested 10–100 µg/mL, ND: no detection within test concentration) [µg/mL] | AGEs IC50 (AGEs formation; [5]) [µg/mL] | AGEs IC50 (AGEs formation; SCS extract and solvent fractions, tested 10–500 µg/mL, ND: no detection within test concentration) [µg/mL]
1 | C[C@@H]1O[C@@H](Oc2c(-c3ccc(O)c(O)c3)oc3cc(O)cc(O)c3c2=O)[C@H](O)[C@H](O)[C@H]1O [Quercitrin (6), Quercetin 3-O-α-L-rhamnoside] | 135 ± 13 | 0.56 ± 0.14 | 96.7 ± 7 | 58 ± 2.5 |  |  |  | 
2 | CC1OC(Oc2cc(O)c3c(=O)c(OC4OC(CO)C(O)C(O)C4O)c(-c4ccc(O)cc4)oc3c2)C(O)C(O)C1O [Kaempferol 3-O-β-D-glucopyranosyl-7-O-α-L-rhamnopyranoside] | 609 ± 32 | 9.38 ± 1.46 | > 1000 | 193 ± 9 |  |  |  | 
3 | O=C(O)CC1(CC(=O)O)CCCC1 [TMG, 3,3′-tetramethyleneglutaric acid, reference compound] |  | 6.97 ± 0.56 |  |  | 1.30 ± 0.10 | 1.30 ± 0.10 |  | 
4 | Oc1ccc(/C=C/c2cc(O)cc(O)c2)cc1 [trans-Resveratrol (8), 3,5,4′-Trihydroxy-trans-stilbene] | 5.97 ± 0.2 | 60.5 ± 16.8 | 61.2 ± 11.7 | 148 ± 14 |  |  |  | 
5 | O=C(/C=C/c1ccc(O)c(O)c1)OC1CC(O)(C(=O)O)CC(O)C1O (stereo not drawn) [5-O-Caffeoylquinic acid (2), 5-O-Caffeoylquinic acid] |  | 87.5 ± 1.6 | 474 ± 35 | 215 ± 18 |  |  |  | 
6 | O=C(O)c1ccc(O)c(O)c1 [Protocatechuic acid (1), Protocatechuic acid] | 176 ± 7 |  | 22.9 ± 0.8 | 418 ± 10 |  |  |  | 
7 | N=C(N)NN [AMG, aminoguanidine, reference compound] |  |  |  | 515 ± 33 |  |  | 54.8 ± 2.1 | 54.8 ± 2.1
8 | CC1OC(Oc2c(O)cc(O)c3c(=O)cc(-c4ccc(O)cc4)oc23)C(O)C(O)C1O (stereo not drawn) [Isoscutellarein-8-O-rhamnoside (10), Isoscutellarein 8-O-rhamnoside] | 45.1 ± 2.6 | 17 ± 3.6 | 101 ± 18 | 440 ± 17 |  |  |  | 
9 | O=C(/C=C/c1ccc(O)c(O)c1)OC1CC(O)(C(=O)O)CC(O)C1O (stereo not drawn) [3-O-Caffeoylquinic acid (3), 3-O-Caffeoylquinic acid] |  | 0.6 ± 0.03 | > 1000 | 80.5 ± 5.5 |  |  |  | 
10 | COc1cc(/C=C/C(=O)OC[C@H]2O[C@@](CO)(O[C@H]3O[C@H](CO)[C@@H](O)[C@H](O)[C@H]3O)[C@@H](OC(=O)/C=C/c3ccc(O)c(OC)c3)[C@@H]2O)ccc1O [Helonioside A (9)] | 154 ± 4 | 34.5 ± 0.1 | > 1000 | 227 ± 16 |  |  |  | 
11 | O=C(/C=C/c1ccc(O)c(O)c1)OC1C(O)CC(O)(C(=O)O)CC1O (stereo not drawn) [4-O-Caffeoylquinic acid (4), 4-O-Caffeoylquinic acid] | 736 ± 15 |  | > 1000 | 74.1 ± 3.1 |  |  |  | 
12 | C[C@@H]1O[C@@H](Oc2c(-c3ccc(O)cc3)oc3cc(O)cc(O)c3c2=O)[C@H](O)[C@H](O)[C@H]1O [Afzelin (7), Kaempferol 3-O-α-L-rhamnoside] |  |  |  | 75.4 ± 3.8 |  |  |  | 
